Test results from the supplement of paper PMC10307832.

Experiments:
Assay in all cases: relative viability (nuclei count vs DMSO), 5 days (fraction); higher = more cells survive
[1] = compound: C1=CC(=CC=C1NC(=S)NNC2=C(C=C(C=C2[N+](=O)[O-])C(F)(F)F)[N+](=O)[O-])F [Kobe2602] + C[C@]1(O)C[C@@H](c2nc(-c3ccc4ccc(-c5ccccc5)nc4c3)c3c(N)nccn32)C1 [Linsitinib] (partner 1 µM)
Outline: (§1)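 Lung cancer cell lines in 1536-well plates got either a single drug or a fixed anchor-drug dose together with five library-drug doses (not always all listed) in √10 steps, by pin tool, on the day after seeding. Nuclei were counted after 5 days, and relative viability is the treated-to-vehicle ratio of nuclei counts. Values are medians of duplicate plates.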

[2] = compound: O[C@@H](COc1cccc2ncccc12)CN1CCN([C@@H]2c3ccccc3[C@@H]3[C@H](c4ccccc42)C3(F)F)CC1 [Zosuquidar] + CC(C)C[C@H](NC(=O)[C@H](Cc1ccccc1)NC(=O)c1cnccn1)B(O)O [Bortezomib] (partner 0.002 µM)
Outline: as §1

[3] = compound: C1=CC(=CC=C1NC(=S)NNC2=C(C=C(C=C2[N+](=O)[O-])C(F)(F)F)[N+](=O)[O-])F [Kobe2602] + C[C@@H](Oc1cc(-c2cnn(C3CCNCC3)c2)cnc1N)c1c(Cl)ccc(F)c1Cl [Crizotinib] (partner 1 µM)
Outline: as §1

[4] = compound: C1=CC(=CC=C1NC(=S)NNC2=C(C=C(C=C2[N+](=O)[O-])C(F)(F)F)[N+](=O)[O-])F [Kobe2602] + Nc1ncn([C@H]2C[C@H](O)[C@@H](CO)O2)c(=O)n1 [Decitabine] (partner 2 µM)
Outline: as §1

NCI-H2405
relative viability ([1]; first compound 0.2 µM): 0.961
relative viability ([1]; first compound 0.6325 µM): 1.06
relative viability ([1]; first compound 2 µM): 0.932
relative viability ([1]; first compound 6.325 µM): 0.971
relative viability ([1]; first compound 20 µM): 0.994
relative viability ([2]; first compound 0.01 µM): 0.931
relative viability ([2]; first compound 0.03162 µM): 0.974
relative viability ([2]; first compound 0.1 µM): 0.861
relative viability ([2]; first compound 0.3162 µM): 1.02
relative viability ([2]; first compound 1 µM): 0.959
relative viability ([3]; first compound 0.2 µM): 0.853
relative viability ([3]; first compound 0.6325 µM): 0.916
relative viability ([3]; first compound 2 µM): 0.827
relative viability ([3]; first compound 6.325 µM): 0.91
relative viability ([3]; first compound 20 µM): 0.786
relative viability ([4]; first compound 0.2 µM): 0.737
relative viability ([4]; first compound 0.6325 µM): 0.749
relative viability ([4]; first compound 2 µM): 0.732
relative viability ([4]; first compound 6.325 µM): 0.745
relative viability ([4]; first compound 20 µM): 0.806

NCI-H3122
relative viability ([1]; first compound 0.2 µM): 1.01
relative viability ([1]; first compound 0.6325 µM): 1.05
relative viability ([1]; first compound 2 µM): 1.01
relative viability ([1]; first compound 6.325 µM): 1.06
relative viability ([1]; first compound 20 µM): 1.11
relative viability ([2]; first compound 0.01 µM): 0.942
relative viability ([2]; first compound 0.03162 µM): 0.93
relative viability ([2]; first compound 0.1 µM): 0.979
relative viability ([2]; first compound 0.3162 µM): 1.04
relative viability ([2]; first compound 1 µM): 0.996
relative viability ([3]; first compound 0.2 µM): 0.262
relative viability ([3]; first compound 0.6325 µM): 0.255
relative viability ([3]; first compound 2 µM): 0.254
relative viability ([3]; first compound 6.325 µM): 0.263
relative viability ([3]; first compound 20 µM): 0.266
relative viability ([4]; first compound 0.2 µM): 0.46
relative viability ([4]; first compound 0.6325 µM): 0.496
relative viability ([4]; first compound 2 µM): 0.471
relative viability ([4]; first compound 6.325 µM): 0.402
relative viability ([4]; first compound 20 µM): 0.391

PC-3 [JPC-3]
relative viability ([1]; first compound 0.2 µM): 0.952
relative viability ([1]; first compound 0.6325 µM): 0.872
relative viability ([1]; first compound 2 µM): 0.965
relative viability ([1]; first compound 6.325 µM): 0.976
relative viability ([1]; first compound 20 µM): 0.956
relative viability ([2]; first compound 0.01 µM): 0.849
relative viability ([2]; first compound 0.03162 µM): 0.879
relative viability ([2]; first compound 0.1 µM): 0.706
relative viability ([2]; first compound 0.3162 µM): 0.765
relative viability ([2]; first compound 1 µM): 0.863
relative viability ([3]; first compound 0.2 µM): 0.933
relative viability ([3]; first compound 0.6325 µM): 1.02
relative viability ([3]; first compound 2 µM): 0.946
relative viability ([3]; first compound 6.325 µM): 0.925
relative viability ([3]; first compound 20 µM): 0.974
relative viability ([4]; first compound 0.2 µM): 0.856
relative viability ([4]; first compound 0.6325 µM): 0.895
relative viability ([4]; first compound 2 µM): 0.84
relative viability ([4]; first compound 6.325 µM): 0.754
relative viability ([4]; first compound 20 µM): 0.787

PC-14
relative viability ([1]; first compound 0.2 µM): 0.946
relative viability ([1]; first compound 0.6325 µM): 0.986
relative viability ([1]; first compound 2 µM): 0.929
relative viability ([1]; first compound 6.325 µM): 0.94
relative viability ([1]; first compound 20 µM): 0.929
relative viability ([2]; first compound 0.01 µM): 0.846
relative viability ([2]; first compound 0.03162 µM): 0.992
relative viability ([2]; first compound 0.1 µM): 0.782
relative viability ([2]; first compound 0.3162 µM): 0.984
relative viability ([2]; first compound 1 µM): 0.78
relative viability ([3]; first compound 0.2 µM): 0.886
relative viability ([3]; first compound 0.6325 µM): 0.927
relative viability ([3]; first compound 2 µM): 0.838
relative viability ([3]; first compound 6.325 µM): 1.02
relative viability ([3]; first compound 20 µM): 0.912
relative viability ([4]; first compound 0.2 µM): 0.224
relative viability ([4]; first compound 0.6325 µM): 0.201
relative viability ([4]; first compound 2 µM): 0.235
relative viability ([4]; first compound 6.325 µM): 0.234
relative viability ([4]; first compound 20 µM): 0.247

RERF-LC-KJ
relative viability ([1]; first compound 0.2 µM): 0.826
relative viability ([1]; first compound 0.6325 µM): 0.868
relative viability ([1]; first compound 2 µM): 0.814
relative viability ([1]; first compound 6.325 µM): 0.829
relative viability ([1]; first compound 20 µM): 0.824
relative viability ([2]; first compound 0.01 µM): 1.17
relative viability ([2]; first compound 0.03162 µM): 1.16
relative viability ([2]; first compound 0.1 µM): 1.17
relative viability ([2]; first compound 0.3162 µM): 1.18
relative viability ([2]; first compound 1 µM): 0.992
relative viability ([3]; first compound 0.2 µM): 0.781
relative viability ([3]; first compound 0.6325 µM): 0.839
relative viability ([3]; first compound 2 µM): 0.836
relative viability ([3]; first compound 6.325 µM): 0.81
relative viability ([3]; first compound 20 µM): 0.756
relative viability ([4]; first compound 0.2 µM): 0.648
relative viability ([4]; first compound 0.6325 µM): 0.69
relative viability ([4]; first compound 2 µM): 0.576
relative viability ([4]; first compound 6.325 µM): 0.591
relative viability ([4]; first compound 20 µM): 0.37

SK-LU-1
relative viability ([1]; first compound 0.2 µM): 1.05
relative viability ([1]; first compound 0.6325 µM): 1.15
relative viability ([1]; first compound 2 µM): 1.04
relative viability ([1]; first compound 6.325 µM): 1.04
relative viability ([1]; first compound 20 µM): 1.27
relative viability ([2]; first compound 0.01 µM): 1.17
relative viability ([2]; first compound 0.03162 µM): 1.14
relative viability ([2]; first compound 0.1 µM): 0.962
relative viability ([2]; first compound 1 µM): 1.41
relative viability ([3]; first compound 0.2 µM): 0.94
relative viability ([3]; first compound 0.6325 µM): 0.944
relative viability ([3]; first compound 2 µM): 0.965
relative viability ([3]; first compound 6.325 µM): 1.06
relative viability ([3]; first compound 20 µM): 0.924
relative viability ([4]; first compound 0.2 µM): 0.672
relative viability ([4]; first compound 0.6325 µM): 0.702
relative viability ([4]; first compound 2 µM): 0.631
relative viability ([4]; first compound 6.325 µM): 0.581
relative viability ([4]; first compound 20 µM): 0.64

SW 1573
relative viability ([1]; first compound 0.2 µM): 0.846
relative viability ([1]; first compound 0.6325 µM): 0.767
relative viability ([1]; first compound 2 µM): 0.811
relative viability ([1]; first compound 6.325 µM): 0.769
relative viability ([1]; first compound 20 µM): 0.864
relative viability ([2]; first compound 0.01 µM): 0.976
relative viability ([2]; first compound 0.03162 µM): 0.987
relative viability ([2]; first compound 0.1 µM): 1.04
relative viability ([2]; first compound 0.3162 µM): 1.18
relative viability ([2]; first compound 1 µM): 1.14
relative viability ([3]; first compound 0.2 µM): 0.788
relative viability ([3]; first compound 0.6325 µM): 0.879
relative viability ([3]; first compound 2 µM): 0.736
relative viability ([3]; first compound 6.325 µM): 0.863
relative viability ([3]; first compound 20 µM): 0.912
relative viability ([4]; first compound 0.2 µM): 0.483
relative viability ([4]; first compound 0.6325 µM): 0.614
relative viability ([4]; first compound 2 µM): 0.453
relative viability ([4]; first compound 6.325 µM): 0.493
relative viability ([4]; first compound 20 µM): 0.318
